Consider 8 compounds from US20060122232A1, “4-Hydroxyfuroic acid derivatives” (DEVELOPMENT CENTER FOR BIOTECHNOLOGY, priority 2004, published 2006).

The target in the assay is T1, human insulin receptor (CHO.IR cells) (Homo sapiens, UniProt P06213).
T1 construct: host or cells: CHO.IR cells (CHO)
Nature of the assay: Cell-based assay for insulin receptor tyrosine kinase activity. The following applies: 20 min; CHO.IR cells treated with 100 μM of compound; read-out: reduction in tyrosine kinase activity. The method, then:
CHO.IR cells overexpressing human insulin receptor were obtained from Stanford University. Approximately 1.5×10^5 cells were seeded in each well of a 96-well plate containing Hams F12 medium plus 10% fetal calf serum, fungizone, penicillin, and streptomycin. The cells were incubated at 37° C. for approximately 24 hours, allowing cells to reach confluency. The cells were then washed with phosphate buffered saline (PBS) three times and then incubated in serum-free medium at 37° C. for 2 hours. Insulin or test compounds were added to the wells and the cells were incubated for an additional 20 minutes at 37° C. The cells were washed with PBS three times and then lysed in 60 μL/well of a lysis buffer containing 50 mM HEPES, pH 7.4, 1% Triton X-100, 5 mM EDTA, 5 mM EGTA, 20 mM sodium pyrophosphate, 1 mM sodium vanadate, 20 mM sodium fluoride, 1 mg/mL Bacitracin, 150 mM sodium chloride, 2 μg/mL Aprotonin, and 1 mM PMSF. Lysates were transferred to a second 96-well plate pre-coated with monoclonal anti-insulin receptor antibody (0.2 μg/50 μL/well, in 20 mM NaHCO3, pH 9.6). The second plate was incubated at 4° C. for 16 hours to immunoabsorb insulin receptors.
CHO.IR cells were cultured at approximately 1.5×10^5 cells/well (in a 96-well plate) in a Hams F12 medium supplemented with 10% fetal calf serum, fungizone, penicillin, and streptomycin. The cells were incubated at 37° C. for 24 hours, allowing cells to reach confluency. The cells were then washed with PBS three times and then incubated in serum-free medium at 37° C. for 2 hours. Insulin or test compounds were added to the cells and incubated for an additional 20 minutes at 37° C. The cells were washed three times with PBS and lysed in the same 60 μL lysis buffer as mentioned in Example 174. Lysates were transferred to a second 96-well plate pre-coated with monoclonal anti-insulin receptor antibody (under the same conditions as those mentioned in Example 174). Lysates were incubated at 4° C. for 16 hours to immunoabsorb insulin receptors.
20 μL of a kinase reaction mixture (50 mM Hepes, pH 7.6, 150 mM NaCl, 5 mM MgCl2, 5 mM MnCl2, 0.1% Triton x-100, 1 mg/mL poly(Glu:Tyr)(4:1), 2 μCi of carrier-free [γ-^32P]ATP) was added to each well. After reacting at 25° C. for 40 minutes, the reaction mixture was transferred to a Multiscreen pH plate (Millipore, Billerica, Mass.) and unbound ATP was washed away. The insulin receptor tyrosine kinase activity was determined by detecting the radioactivities associated with the wells using a Topcount scintillation counter (Perkin-Elmer, Wellesley, Mass.).

T1 sequence (P06213 28-758 limits assumed): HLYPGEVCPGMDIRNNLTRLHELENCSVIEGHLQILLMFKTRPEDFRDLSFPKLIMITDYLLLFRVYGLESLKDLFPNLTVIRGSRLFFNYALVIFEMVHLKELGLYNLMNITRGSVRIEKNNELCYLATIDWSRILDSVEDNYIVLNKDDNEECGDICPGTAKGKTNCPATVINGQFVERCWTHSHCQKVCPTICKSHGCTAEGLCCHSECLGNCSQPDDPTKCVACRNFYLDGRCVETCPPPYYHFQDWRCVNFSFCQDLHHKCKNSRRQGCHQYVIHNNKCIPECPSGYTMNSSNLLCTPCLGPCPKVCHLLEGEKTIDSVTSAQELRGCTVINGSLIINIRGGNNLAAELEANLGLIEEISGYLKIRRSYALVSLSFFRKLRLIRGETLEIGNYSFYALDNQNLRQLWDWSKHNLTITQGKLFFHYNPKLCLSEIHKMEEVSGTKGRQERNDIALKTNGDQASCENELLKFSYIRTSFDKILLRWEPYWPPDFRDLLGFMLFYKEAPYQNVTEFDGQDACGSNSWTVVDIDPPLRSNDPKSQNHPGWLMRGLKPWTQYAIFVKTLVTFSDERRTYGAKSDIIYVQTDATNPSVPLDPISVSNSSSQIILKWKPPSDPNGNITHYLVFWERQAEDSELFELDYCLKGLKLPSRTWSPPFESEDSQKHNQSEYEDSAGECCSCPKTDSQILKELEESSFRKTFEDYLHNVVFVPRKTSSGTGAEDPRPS
T1 sequence (P06213 763-1382 limits assumed): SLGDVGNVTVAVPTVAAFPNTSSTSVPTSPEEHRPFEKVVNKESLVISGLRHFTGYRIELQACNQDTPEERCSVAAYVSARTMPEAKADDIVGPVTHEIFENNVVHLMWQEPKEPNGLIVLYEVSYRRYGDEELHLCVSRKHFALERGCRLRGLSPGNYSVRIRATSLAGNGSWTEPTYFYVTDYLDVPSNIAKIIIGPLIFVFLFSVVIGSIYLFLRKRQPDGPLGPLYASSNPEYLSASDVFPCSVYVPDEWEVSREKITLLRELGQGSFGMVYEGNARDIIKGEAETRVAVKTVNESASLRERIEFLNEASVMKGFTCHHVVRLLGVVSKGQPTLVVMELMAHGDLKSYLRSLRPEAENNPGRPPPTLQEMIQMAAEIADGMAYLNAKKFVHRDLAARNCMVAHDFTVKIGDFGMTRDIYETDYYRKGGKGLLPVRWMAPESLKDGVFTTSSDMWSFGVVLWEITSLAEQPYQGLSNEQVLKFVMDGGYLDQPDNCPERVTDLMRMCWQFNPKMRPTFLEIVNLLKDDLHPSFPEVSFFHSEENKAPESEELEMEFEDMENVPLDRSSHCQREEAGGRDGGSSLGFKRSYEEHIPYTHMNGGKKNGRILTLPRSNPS

Regarding `CCCCCc1cccc2c(C(=O)c3oc(C(=O)O)c(-c4c[nH]c5ccccc45)c3O)c[nH]c12` [Compound 171], the inhibition at 100 µM fell in the range of 12 to 53%. `O=C(O)c1oc(C(=O)c2c[nH]c3c(CCCCO)cccc23)c(O)c1-c1c[nH]c2ccccc12` [Compound 21]: the inhibition at 100 µM fell in the range of 12 to 53%.

Consider `O=C(O)CCc1cccc2c(C(=O)c3oc(C(=O)O)c(-c4c[nH]c5ccccc45)c3O)c[nH]c12` [Compound 170], for which the inhibition at 100 µM is 12 to 53%. Consider `O=C(O)c1sc(C(=O)c2c[nH]c3c(CCCCCO)cccc23)c(O)c1-c1c[nH]c2ccccc12` [Compound 114], for which the inhibition at 100 µM was in the range of 12 to 53%. Next, `O=C(O)CCCCc1cccc2c(C(=O)c3oc(C(=O)O)c(-c4c[nH]c5ccccc45)c3O)c[nH]c12` [Compound 172]: 12 to 53%; `O=C(O)c1oc(C(=O)c2c[nH]c3c(CCCC(CO)CO)cccc23)c(O)c1-c1c[nH]c2ccccc12` [Compound 173]: 12 to 53%.

`O=C(O)c1oc(C(=O)c2c[nH]c3c(CCCCCO)cccc23)c(O)c1-c1c[nH]c2ccccc12` [Compound 30]: the inhibition at 100 µM was in the range of 12 to 53%. Next, `O=C(O)c1oc(C(=O)c2c[nH]c3c(CCCO)cccc23)c(O)c1-c1c[nH]c2ccccc12` [Compound 9]: 12 to 53%.
